Reference: patent USRE50528E1, “Compounds and compositions for modulating EGFR mutant kinase activities” (Yuhan Corporation, priority 2014, dated 2025)
Like-named read-outs stand apart in the source and are kept apart here.

Experiments:
EGFR mutant T790M = biological target: T1, EGFR mutant T790M (Homo sapiens, UniProt P00533, T790M); experiment: Kinase inhibition assay, EGFR mutant T790M; details: biochemical potency;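 also: truncated human EGFR mutant enzyme preincubated two hours with compound, then ATP plus ULight-PolyGT peptide for one hour, Europium-labeled antibody LANCE detection, IC50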
T1 construct: truncated human JAK3, EGFR mutants such as del E746-A750; purchased Carna Biosciences

[1] = biological target: T2, EGFR mutant Del19 (E746-A750) (Homo sapiens, UniProt P00533, DEL746-750); experiment: Kinase inhibition assay, EGFR del E746-A750; format: biochemical; details: read-out: EGFR mutants Del19 (E746-A750);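 also: truncated human EGFR mutant kinase, two-hour preincubation with compound, then one-hour reaction with ATP and ULight-PolyGT peptide, LANCE Europium-antibody phosphorylation readout, IC50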
T2 construct: truncated human JAK3, EGFR mutants such as del E746-A750; purchased Carna Biosciences

EGFR mutant L858R = biological target: T3, EGFR mutant L858R (Homo sapiens, UniProt P00533, L858R); experiment: Kinase inhibition assay, EGFR L858R; format: biochemical; details: read-out: EGFR mutants L858R;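 also: truncated human EGFR L858R kinase with compound preincubation, ULight-PolyGT peptide phosphorylation read by Europium-antibody Lance detection, IC50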
T3 construct: truncated human JAK3, EGFR mutants such as del E746-A750; purchased Carna Biosciences

EGFR mutant L858R/T790M = biological target: T4, EGFR mutant L858R/T790M (Homo sapiens, UniProt P00533, L858R/T790M); experiment: Kinase inhibition assay, EGFR L858R/T790M; format: biochemical; details: read-out: EGFR mutants L858R/T790M;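 also: truncated human enzyme preincubated two hours with compound, then one hour with one millimolar ATP and ULight-PolyGT peptide, Europium-labeled antibody detection, IC50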
T4 construct: truncated human JAK3, EGFR mutants such as del E746-A750; purchased Carna Biosciences

EGFR mutant Del19/T790M = biological target: T5, EGFR mutant Del19/T790M (Homo sapiens, UniProt P00533, DEL746-750/T790M); experiment: Kinase inhibition assay, EGFR del E746-A750/T790M; format: biochemical; details: read-out: EGFR mutants Del19/T790M
T5 construct: truncated human JAK3, EGFR mutants such as del E746-A750; purchased Carna Biosciences

SYK = biological target: T6, SYK (Homo sapiens, UniProt P43405); experiment: Kinase inhibition assay, SYK; format: biochemical; details: biochemical potency;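 also: purified full-length human SYK pre-incubated 30 min with compound, then ULight-TK peptide phosphorylation for 1 h, detected with Europium-labeled antibody in Lance buffer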
T6 construct: Purified human, full-length SYK, KDR; purchased Carna Biosciences

H2073 (EGFR wildtype) = experiment: Cell viability assay, H2073; format: cell-based; details: cellular potency, 72-hour incubation, ATPLite;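 also: NSCLC cell line whose survival relies on wildtype EGFR, treated with serially diluted compound, cytotoxic effect judged from remaining cell viability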
[2] = tested on: PC9 (EGFR del E746-A750 mutant); experiment: Cell viability assay, PC9; format: cell-based; details: for Selectivity over wildtype, Wildtype vs mutant H2073/PC9 (fold): cellular potency ratio; for IC50: cellular potency, 72-hour incubation, ATPLite, read-out: EGFR Mutants PC9;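 as to all read-outs here: NSCLC PC9 cells, whose viability relies on EGFR del E746-A750, exposed to serially diluted compound for 72 h at 37 °C, ATPLite read-out, IC50, H2073 as EGFR wildtype line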
[3] = tested on: H1975 (EGFR L858R/T790M mutant); experiment: Cell viability assay, H1975; format: cell-based; details: for Selectivity over wildtype, Wildtype vs mutant H2073/H1975 (fold): cellular potency ratio; for IC50: cellular potency, 72-hour incubation, ATPLite, read-out: EGFR Mutants H1975;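 as to all read-outs here: NSCLC cells whose survival relies on EGFR L858R/T790M, exposed 72 h to serially diluted compound, ATP-based viability readout, with the H2073 line (wildtype EGFR dependent) as wildtype comparator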

IC50 (EGFR mutant T790M) [nM] | IC50 (SYK) [nM] | IC50 [2] [nM] | IC50 [1] [nM] | IC50 (EGFR mutant L858R) [nM] | IC50 (EGFR mutant L858R/T790M) [nM] | IC50 (EGFR mutant Del19/T790M) [nM] | IC50 (H2073 (EGFR wildtype); NCI-H2073) [nM] | IC50 ([3]; Homo sapiens, NCI-H1975) [nM] | Molecule | IC50 ([1]; biochemical potency, 1 mM ATP) [nM] | IC50 (EGFR mutant L858R; biochemical potency, 1 mM ATP) [nM] | IC50 (EGFR mutant L858R/T790M; biochemical potency, 1 mM ATP) [nM] | IC50 (EGFR mutant Del19/T790M; biochemical potency, 1 mM ATP) [nM] | IC50 (H2073 (EGFR wildtype)) [nM] | Selectivity over wildtype, Wildtype vs mutant H2073/PC9 (fold) [2] | Selectivity over wildtype, Wildtype vs mutant H2073/H1975 (fold) [3] | IC50 [3] [nM]
< 20 | > 1000 | < 20 | < 20 | < 20 | < 20 | < 20 | 20 to 200 | < 20 | C=CC(=O)Nc1cc(Nc2nccc(-n3cc(CN(C)C)c(-c4ccccc4)n3)n2)c(OC)cc1N1CCC1 [Compound 84, N-(2-(azetidin-1-yl)-5-(4-(4-((dimethylamino)methyl)-3-phenyl-1H-pyrazol-1-yl)pyrimidin-2-ylamino)-4-methoxyphenyl)acrylamide] | – | – | – | – | – | <20 fold | <20 fold | –
20 to 200 | > 1000 | < 20 | < 20 | < 20 | < 20 | < 20 | 201 to 1000 | < 20 | C=CC(=O)Nc1cc(Nc2nccc(-n3cc(CN(C)C)c(C(C)(C)C)n3)n2)c(OC)cc1N1CCOCC1 [Compound 86, N-(5-(4-(3-tert-butyl-4-((dimethylamino)methyl)-1H-pyrazol-1-yl)pyrimidin-2-ylamino)-4-methoxy-2-morpholinophenyl)acrylamide] | – | – | – | – | – | 20-200 fold | 20-200 fold | –
< 20 | > 1000 | < 20 | < 20 | < 20 | < 20 | < 20 | > 1000 | < 20 | C=CC(=O)Nc1cc(Nc2nccc(-n3cc(CN(C)CC)c(-c4ccccc4)n3)n2)c(OC)cc1N1CCOCC1 [Compound 92, N-(5-(4-(4-((ethyl(methyl)amino)methyl)-3-phenyl-1H-pyrazol-1-yl)pyrimidin-2-ylamino)-4-methoxy-2-morpholinophenyl)acrylamide] | – | – | – | – | – | >200 fold | >200 fold | –
< 20 | 201 to 1000 | – | < 20 | < 20 | < 20 | < 20 | – | – | C=CC(=O)Nc1cc(Nc2nccc(-n3cc(CN4CCC4)c(-c4ccccc4)n3)n2)c(OC)cc1N1CCN(C(C)=O)CC1 [Compound 134, N-(2-(4-acetylpiperazin-1-yl)-5-(4-(4-(azetidin-1-ylmethyl)-3-phenyl-1H-pyrazol-1-yl)pyrimidin-2-ylamino)-4-methoxyphenyl)acrylamide] | – | – | – | – | – | – | – | –
< 20 | > 1000 | – | < 20 | < 20 | < 20 | < 20 | – | – | C=CC(=O)Nc1cc(Nc2nccc(-n3cc(CN(C)C)c(-c4ccccc4)n3)n2)c(OC)cc1N1CCN(C(C)=O)CC1 [Compound 135, N-(2-(4-acetylpiperazin-1-yl)-5-(4-(4-((dimethylamino)methyl)-3-phenyl-1H-pyrazol-1-yl)pyrimidin-2-ylamino)-4-methoxyphenyl)acrylamide] | – | – | – | – | – | – | – | –
< 20 | > 1000 | – | < 20 | < 20 | < 20 | < 20 | – | – | C=CC(=O)Nc1cc(Nc2nccc(-n3cc(CN4CCC4)c(C4CC4)n3)n2)c(OC)cc1N1CCN(C(C)=O)CC1 [Compound 138, N-(2-(4-acetylpiperazin-1-yl)-5-(4-(4-(azetidin-1-ylmethyl)-3-cyclopropyl-1H-pyrazol-1-yl)pyrimidin-2-ylamino)-4-methoxyphenyl)acrylamide] | – | – | – | – | – | – | – | –
< 20 | > 1000 | – | < 20 | < 20 | < 20 | < 20 | – | – | C=CC(=O)Nc1cc(Nc2nccc(-n3cc(CN4CCC4)c(C4CC4)n3)n2)c(OC)cc1N1CCC1 [Compound 139, N-(2-(azetidin-1-yl)-5-(4-(4-(azetidin-1-ylmethyl)-3-cyclopropyl-1H-pyrazol-1-yl)pyrimidin-2-ylamino)-4-methoxyphenyl)acrylamide] | – | – | – | – | – | – | – | –
< 20 | > 1000 | – | < 20 | < 20 | < 20 | < 20 | – | – | C=CC(=O)Nc1cc(Nc2nccc(-n3cc(CN(C)CC)c(C4CC4)n3)n2)c(OC)cc1N1CCOCC1 [Compound 140, N-(5-(4-(3-cyclopropyl-4-((ethyl(methyl)amino)methyl)-1H-pyrazol-1-yl)pyrimidin-2-ylamino)-4-methoxy-2-morpholinophenyl)acrylamide] | – | – | – | – | – | – | – | –
< 20 | 201 to 1000 | – | < 20 | < 20 | < 20 | < 20 | – | – | C=CC(=O)Nc1cc(Nc2ncc(F)c(-n3cc(C)c(CN4CCC4)c3)n2)c(OC)cc1N1CCC1 [Compound 141, N-(2-(azetidin-1-yl)-5-(4-(3-(azetidin-1-ylmethyl)-4-methyl-1H-pyrrol-1-yl)-5-fluoropyrimidin-2-ylamino)-4-methoxyphenyl)acrylamide] | – | – | – | – | – | – | – | –
> 1000 | > 1000 | – | > 1000 | > 1000 | 201 to 1000 | > 1000 | – | – | Cc1cn(-c2ccnc(Nc3ccc(-c4ccccc4)c(C)c3)n2)cc1CN1CC(O)C1 [Compound 150, 1-((4-methyl-1-(2-(2-methylbiphenyl-4-ylamino)pyrimidin-4-yl)-1H-pyrrol-3-yl)methyl)azetidin-3-ol, reference compound] | – | – | – | – | – | – | – | –
> 1000 | > 1000 | – | > 1000 | > 1000 | > 1000 | > 1000 | – | – | COc1cc(N2CCOCC2)c([N+](=O)[O-])cc1Nc1nccc(-n2cc(CN(C)C)c(-c3ccccc3)n2)n1 [Compound 152, 4-(4-((dimethylamino)methyl)-3-phenyl-1H-pyrazol-1-yl)-N-(2-methoxy-4-morpholino-5-nitrophenyl)pyrimidin-2-amine, reference compound] | – | – | – | – | – | – | – | –
> 1000 | > 1000 | – | > 1000 | > 1000 | > 1000 | > 1000 | – | – | COc1cc(N2CCOCC2)c(N)cc1Nc1nccc(-n2cc(CN(C)C)c(-c3ccccc3)n2)n1 [Compound 153, N1-(4-(4-((dimethylamino)methyl)-3-phenyl-1H-pyrazol-1-yl)pyrimidin-2-yl)-6-methoxy-4-morpholinobenzene-1,3-diamine, reference compound] | – | – | – | – | – | – | – | –
– | – | 20 to 200 | – | – | – | – | > 1000 | 201 to 1000 | C=CCC(=O)Nc1cc(Nc2nccc(-n3cc(CN(C)C)c(-c4ccccc4)n3)n2)c(OC)cc1N1CCOCC1 [Compound 154, N-(5-(4-(4-((dimethylamino)methyl)-3-phenyl-1H-pyrazol-1-yl)pyrimidin-2-ylamino)-4-methoxy-2-morpholinophenyl)but-3-enamide, reference compound] | – | – | – | – | – | <20 fold | <20 fold | –
– | – | 201 to 1000 | – | – | – | – | > 1000 | 201 to 1000 | CC/C=C/C(=O)Nc1cc(Nc2nccc(-n3cc(CN(C)C)c(-c4ccccc4)n3)n2)c(OC)cc1N1CCOCC1 [Compound 155, (E)-N-(5-(4-(4-((dimethylamino)methyl)-3-phenyl-1H-pyrazol-1-yl)pyrimidin-2-ylamino)-4-methoxy-2-morpholinophenyl)pent-2-enamide, reference compound] | – | – | – | – | – | <20 fold | <20 fold | –
– | > 1000 | > 1000 | > 1000 | > 1000 | 201 to 1000 | 20 to 200 | > 1000 | > 1000 | CC/C=C\CC(=O)Nc1cc(Nc2nccc(-n3cc(CN(C)C)c(-c4ccccc4)n3)n2)c(OC)cc1N1CCOCC1 [Compound 156, (Z)—N-(5-(4-(4-((dimethylamino)methyl)-3-phenyl-1H-pyrazol-1-yl)pyrimidin-2-ylamino)-4-methoxy-2-morpholinophenyl)hex-3-enamide, reference compound] | – | – | – | – | – | <20 fold | <20 fold | –

Molecule | IC50 (EGFR mutant T790M) [nM] | IC50 (SYK) [nM] | IC50 [2] [nM] | IC50 [1] [nM] | IC50 (EGFR mutant L858R) [nM] | IC50 (EGFR mutant L858R/T790M) [nM] | IC50 (EGFR mutant Del19/T790M) [nM] | IC50 (H2073 (EGFR wildtype); NCI-H2073) [nM] | IC50 ([3]; Homo sapiens, NCI-H1975) [nM] | IC50 ([1]; biochemical potency, 1 mM ATP) [nM] | IC50 (EGFR mutant L858R; biochemical potency, 1 mM ATP) [nM] | IC50 (EGFR mutant L858R/T790M; biochemical potency, 1 mM ATP) [nM] | IC50 (EGFR mutant Del19/T790M; biochemical potency, 1 mM ATP) [nM] | IC50 (H2073 (EGFR wildtype)) [nM] | Selectivity over wildtype, Wildtype vs mutant H2073/PC9 (fold) [2] | Selectivity over wildtype, Wildtype vs mutant H2073/H1975 (fold) [3] | IC50 [3] [nM]
4-(3-((dimethylamino)methyl)-4-methyl-1H-pyrrol-1-yl)-N-(3,5-dimethylphenyl)pyrimidin-2-amine [Compound 146, reference compound] | > 1000 | 20 to 200 | > 1000 | – | – | – | – | – | – | > 1000 | > 1000 | 201 to 1000 | 201 to 1000 | > 1000 | <20 fold | <20 fold | > 1000
